# Experimental data reported in US20090172831A1, “Methods for the production of plants resistant to HPPD herbicides” (Syngenta Limited, priority 2000, published 2009).
# Values joined by “and” are separate entries in the source; they are usually repeats but may differ in a detail not shown here. Equal entries are not always repeated.
# Assays:
# Arabidopsis HPPD = target: T1, Arabidopsis HPPD (Arabidopsis thaliana, UniProt P93836); assay: Inhibition of HPPD (E. coli extract) after pre-incubation with inhibitor; format: biochemical; settings: read-out: inhibition (relative to controls)
# T1 construct: made in house; host or cells: E. coli BL21 (DE3) codon+ RP
# T1 sequence (P93836 1-445): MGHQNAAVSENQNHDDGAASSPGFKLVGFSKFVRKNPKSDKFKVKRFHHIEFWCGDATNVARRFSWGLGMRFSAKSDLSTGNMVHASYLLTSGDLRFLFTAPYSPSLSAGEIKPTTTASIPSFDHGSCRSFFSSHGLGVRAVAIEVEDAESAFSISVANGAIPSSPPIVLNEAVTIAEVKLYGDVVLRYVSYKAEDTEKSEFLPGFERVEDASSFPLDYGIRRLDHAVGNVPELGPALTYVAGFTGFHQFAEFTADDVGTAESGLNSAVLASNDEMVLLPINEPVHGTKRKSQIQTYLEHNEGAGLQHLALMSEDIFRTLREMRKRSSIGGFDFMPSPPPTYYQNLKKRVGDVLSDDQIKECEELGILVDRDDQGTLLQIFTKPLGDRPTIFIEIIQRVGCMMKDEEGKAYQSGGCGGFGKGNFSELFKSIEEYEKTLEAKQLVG
# Method: Qualitative measurements of the differences in Kd values in respect of different HPPD inhibitors are obtained by pre-incubating enzyme with inhibitor and, then, subsequently, measuring the % inhibition. For example HPPD is isolated from maize seedlings, part purified and assayed by similar methods to those described by Schulz et al 1993 (FEBS LETS. 318, 162-166) and by Secor (1994) in Plant Physiol. 106, 1429-1433. Assays are run for 30 minutes and started with addition of radiolabelled hydroxyphenylpyruvate (final concentration ˜0.1-0.2 mM) following a 20-30 min period over which inhibitor is pre-incubated with the part-purified enzyme.
# Using the same assay method but using HPPD from Arabidopis (obtained from E. coli cells transformed to express the Arabidopsis HPPD and prepared as an E. coli extract similar to the methods described by Garcia et al in Plant Physiol (1999) 119, 1507-1516) the following levels of inhibition (relative to controls) are observed with the following doses of herbicide versus Arabidopsis HPPD.
# [1] = test system: tobacco plants transformed to express wheat HPPD; assay: Tolerance of tobacco transformed with wheat HPPD to herbicides; format: in vivo; settings: MS agar; a number of PCR+ve transformants (0.1), a sub-set (>0.2); listed as mesotrione
# Source text: These constructs were all transformed into Agrobacterium tumefaciens strain LBA4404, which in turn was used to transform tobacco, using methodology described previously.
# Explants (i.e. a leaf plus short segment of stem containing the auxiliary bud) are placed into MS agar (+3% sucrose) containing various concentrations of mesotrione (see above) from 0.02 to 2 ppm.
smiles,measurement,setting,value
"CS(=O)(=O)c1ccc(C(=O)C2C(=O)CCCC2=O)c([N+](=O)[O-])c1 [Structure I, 2-(Nitro-4-methanesulphonylbenzoyl)-cyclohexane-1,3-dione, reference compound]",inhibition at 0.001 µM,Arabidopsis HPPD; 1 nM,42%
same,inhibition at 0.01 µM,Arabidopsis HPPD; 10 nM,95%
same,inhibition at 0.1 µM,Arabidopsis HPPD; 100 nM,100%
same,inhibition at 1 µM,Arabidopsis HPPD; 1000 nM,100%
same,concentration tolerated with no indication of bleaching / plants looking normal,[1],0.1 ppm and > 0.2 ppm
